Test results: US9145391B2, “Bipyridylaminopyridines as Syk inhibitors” (Merck Sharp & Dohme Corp., priority 2011, dated 2015)

Molecular target: recombinant human GST-Syk (Homo sapiens (Human), UniProt P43405)
Test: Homogeneous Time-Resolved Fluorescence (HTRF) assay for the recombinant human Syk enzyme
Format: biochemical
Settings: recombinant human GST-Syk 5 pM, ATP 25 μM, read-out: rhSyk IC50
Procedure: Syk inhibition may be determined using the following assay protocol: Homogeneous Time-Resolved Fluorescence (HTRF) Assay for the Recombinant Human Syk Enzyme: A recombinant GST-hSyk fusion protein was used to measure potency of compounds to inhibit human Syk activity. […] To initiate the reaction the biotinylated substrate peptide (250 nM final concentration) that contains the phosphorylation site for Syk was added with magnesium (5 mM final concentration) and ATP (25 μM final concentration). […] Final volume of the quenching solution was 10 μL.

In the case of Cc1cc(Nc2cc(C(F)(F)F)ccn2)nc(-c2ccc(C(C)[C@H]3CC[C@H](C(=O)O)CC3)nc2)c1 (single isomer, unassigned) [Example 14, trans-4-[(1R or 1S)-(4-Methyl-6-{[4-(trifluoromethyl)pyridin-2-yl]amino}-2,3′-bipyridin-6′-yl)ethyl]cyclohexanecarboxylic acid], the IC50 is reported as under 0.5 nM.
CC(=O)NC1CCCN(c2ccc(-c3cc(C)cc(Nc4cc(C(F)(F)F)ccn4)n3)cn2)C1 (stereo not drawn) [Example 4-18] showed an IC50 of 14 nM.
With Cc1cc(Nc2cc(C(F)(F)F)ccn2)nc(-c2ccc(NC3CCN(C(=O)c4ccnn4-c4ccccc4)CC3)nc2)c1 [Example 4-32] the IC50 was 54 nM.
Cc1cc(Nc2cc(C(F)(F)F)ccn2)nc(-c2ccc(NC3CCC(C(=O)O)C(C)(C)C3)nc2)c1 (single isomer, unassigned) [Example 3-5] was tested, and the IC50 was 2 nM.
For Cc1cc(Nc2cc(C(F)F)ccn2)nc(-c2ccc(C(C)(O)[C@H]3CC[C@H](C(=O)OC(C)OC(=O)C(C)C)CC3)nc2)c1 (single isomer, unassigned) [Example 21-5, 1-[(2-methylpropanoyl)oxy]ethyl trans-4-[(1R or 1S)-1-(6-{[4-(difluoromethyl)pyridin-2-yl]amino}-4-methyl-2,3′-bipyridin-6′-yl)-1-hydroxyethyl] cyclohexanecarboxylate], the IC50 was 33 nM.
With CCOC(=O)C1CCC(O)(c2ccc(-c3cc(C)cc(Nc4cc(C(F)(F)F)ccn4)n3)cn2)CC1 (stereo not drawn) [Example 1-10] the IC50 was 45 nM.
Work on Cc1cc(Nc2cc(C(F)F)ccn2)nc(-c2ccc(C(C)(O)[C@H]3CC[C@H](C(=O)OCC(C)(C)C)CC3)nc2)c1 (single isomer, unassigned) [Example 19-8, 2,2-dimethylpropyl trans-4-[(1R or 1S)-1-(6-{[4-(difluoromethyl)pyridin-2-yl]amino}-4-methyl-2,3′-bipyridin-6′-yl)-1-hydroxyethyl] cyclohexanecarboxylate] yielded an IC50 of 150 nM.
Cc1cc(Nc2cc(C(F)F)ccn2)nc(-c2ccc(C(C)(O)[C@H]3CC[C@H](C(=O)OC4CCOCC4)CC3)nc2)c1 (single isomer, unassigned) [Example 19-13, tetrahydro-2H-pyran-4-yl trans-4-[(1R or 1S)-1-(6-{[4-(difluoromethyl)pyridin-2-yl]amino}-4-methyl-2,3′-bipyridin-6′-yl)-1-hydroxyethyl] cyclohexanecarboxylate] was tested, and the IC50 was 8.7 nM.
Work on Cc1cc(Nc2cc(C(F)(F)F)ccn2)nc(-c2ccc(NC3CCN(C(=O)c4cccc(N(C)C)c4)CC3)nc2)c1 [Example 4-42] yielded an IC50 of 4 nM.
For Cc1cc(Nc2cc(C(F)(F)F)ccn2)nc(-c2ccc(N3CCCC3C(=O)O)nc2)c1 (stereo not drawn) [Example 2-17], the IC50 was 39 nM.
For Cc1cc(Nc2cc(C(F)(F)F)ccn2)nc(-c2ccc(F)nc2)c1 [Example 1-1], the IC50 was 38 nM.
Cc1cc(Nc2cc(C(F)(F)F)ccn2)nc(-c2ccc(NC3CCN(C(=O)Cc4ccc(-c5ccccc5)cc4)CC3)nc2)c1 [Example 4-69] was tested, and the IC50 was 138 nM.
CC(=O)N[C@H]1CCN(c2ccc(-c3cc(C)cc(Nc4cc(C(F)(F)F)ccn4)n3)cn2)C1 [Example 6, N-[(3S)-1-(4-methyl-6-{[4-(trifluoromethyl)pyridin-2-yl]amino}-2,3′-bipyridin-6′-yl)pyrrolidin-3-yl]acetamide] gave an IC50 of 17 nM.
Cc1cc(Nc2cc(C(F)F)ccn2)nc(-c2ccc(C(C)(O)[C@H]3CC[C@H](C(=O)OCc4oc(=O)oc4C)CC3)nc2)c1 (single isomer, unassigned) [Example 19-21, (5-methyl-2-oxo-1,3-dioxol-4-yl)methyl trans-4-[(1R or 1S)-1-(6-{[4-(difluoromethyl)pyridin-2-yl]amino}-4-methyl-2,3′-bipyridin-6′-yl)-1-hydroxyethyl] cyclohexanecarboxylate] gave an IC50 of 5.2 nM.
Molecule Cc1cc(Nc2cc(C(F)(F)F)ccn2)nc(-c2ccc(NC3CCN(C(=O)c4cccc(S(C)(=O)=O)c4)CC3)nc2)c1 [Example 4-46] has an IC50 of 4 nM.
Cc1cc(Nc2cc(C(F)(F)F)ccn2)nc(-c2ccc(NCC3CCC(C(=O)O)CC3)nc2)c1 (stereo not drawn) [Example 2-23] was tested, and the IC50 was 3 nM.
Cc1cc(Nc2cc(C(F)(F)F)ccn2)nc(-c2ccc(NC(C)(C)C(=O)O)nc2)c1 [Example 2-19] showed an IC50 of 19 nM.
CCOC(=O)OC(C)OC(=O)[C@H]1CC[C@H](C(C)(O)c2ccc(-c3cc(C)cc(Nc4cc(C(F)F)ccn4)n3)cn2)CC1 (single isomer, unassigned) [Example 20-2, 1-[(ethoxycarbonyl)oxy]ethyl trans-4-[(1R or 1S)-1-(6-{[4-(difluoromethyl)pyridin-2-yl]amino}-4-methyl-2,3′-bipyridin-6′-yl)-1-hydroxyethyl] cyclohexanecarboxylate] showed an IC50 of 69 nM.
Cc1cc(Nc2cc(C(F)F)ccn2)nc(-c2ccc(C(C)(O)[C@H]3CC[C@@H](C(=O)O)CC3)nc2)c1 (single isomer, unassigned) [Example 12-2, cis-4-[(1R or 1S)-(6-{[4-(difluoromethyl)pyridin-2-yl]amino}-4-methyl-2,3′-bipyridin-6′-yl)-1-hydroxyethyl]cyclohexanecarboxylic acid] gave an IC50 of under 0.5 nM.
For CC(=O)N1CCC(Nc2ccc(-c3cc(C)cc(Nc4cc(C(F)(F)F)ccn4)n3)cn2)CC1 [Example 4-16], the IC50 was 4 nM.
Work on Cc1cc(Nc2cc(C(F)F)ccn2)nc(-c2ccc(C(C)(O)[C@H]3CC[C@@H](C(=O)O)CC3)nc2)c1 (single isomer, unassigned) [Example 12-3, cis-4-[(1R or 1S)-(6-{[4-(difluoromethyl)pyridin-2-yl]amino}-4-methyl-2,3′-bipyridin-6′-yl)-1-hydroxyethyl]cyclohexanecarboxylic acid] yielded an IC50 of 1 nM.
Molecule Cc1cc(Nc2cc(C(F)(F)F)ccn2)nc(-c2ccc(NC3CCN(C(=O)Cc4ccc5[nH]c(C)c(C)c5c4)CC3)nc2)c1 [Example 4-34] has an IC50 of 8 nM.
For Cc1cc(Nc2cc(C3CC3)ccn2)nc(-c2ccc(C(C)(O)C3CCC(C(=O)O)CC3)nc2)c1 (stereo not drawn) [Example 1-32], the IC50 was 1 nM.
Molecule Cc1cc(Nc2cc(C(F)(F)F)ccn2)nc(-c2ccc(NC3CCN(C(=O)c4[nH]c5ccccc5c4C)CC3)nc2)c1 [Example 4-6] has an IC50 of 22 nM.
Work on Cc1cc(Nc2cc(C(F)F)ccn2)nc(-c2ccc(C(C)(O)[C@H]3CC[C@H](C(=O)OC(C)OC(=O)OC(C)C)CC3)nc2)c1 (single isomer, unassigned) [Example 20-7, 1-{[(propan-2-yloxy)carbonyl]oxy}ethyl trans-4-[(1R or 1S)-1-{6-{[4-(difluoromethyl)pyridin-2-yl]amino}-4-methyl-2,3′-bipyridin-6′-yl)-1-hydroxyethyl] cyclohexanecarboxylate] yielded an IC50 of 100 nM.
Cc1cc(Nc2cc(C(F)(F)F)ccn2)nc(-c2ccnc(F)c2)c1 [Example 1-4] was tested, and the IC50 was 87 nM.
In the case of COC(=O)C1CCC(O)(c2ccc(-c3cc(C)cc(Nc4cc(C(F)(F)F)ccn4)n3)cn2)CC1(C)C (single isomer, unassigned) [Example 1-6], the IC50 is reported as 405 nM.
Cc1cc(Nc2cc(C(F)F)ccn2)nc(-c2ccc(C(C)(O)[C@H]3CC[C@H](C(=O)OCOC(=O)OC(C)C)CC3)nc2)c1 (single isomer, unassigned) [Example 20-1, {[(propan-2-yloxy)carbonyl]oxy}methyl trans-4-[(1R or 1S)-1-(6-{[4-(difluoromethyl)pyridin-2-yl]amino}-4-methyl-2,3′-bipyridin-6′-yl)-1-hydroxyethyl] cyclohexanecarboxylate] gave an IC50 of 19 nM.
CC(C)(O)c1cc(Nc2cc(C(F)F)ccn2)nc(-c2ccc(C(C)(O)C3CCC(C(=O)O)CC3)nc2)c1 (stereo not drawn) [Example 1-34] gave an IC50 of 1 nM.
Work on CC(=O)Nc1cccc(C(=O)N2CCC(Nc3ccc(-c4cc(C)cc(Nc5cc(C(F)(F)F)ccn5)n4)cn3)CC2)c1 [Example 4-58] yielded an IC50 of 4 nM.
In the case of Cc1cc(Nc2cc(C(F)(F)F)ccn2)nc(-c2ccc(NC3CCN(C(=O)CCN4CCCC4=O)CC3)nc2)c1 [Example 4-11], the IC50 is reported as 2 nM.
For Cc1cc(Nc2cc(C(F)(F)F)ccn2)nc(-c2ccc(N3CCC(C(=O)N4CCC(C(=O)O)CC4)CC3)nc2)c1 [Example 2-26], the IC50 was 3 nM.
Cc1cc(Nc2cc(C(F)(F)F)ccn2)nc(-c2ccc(NC3CCN(C(=O)COc4ccccc4)CC3)nc2)c1 [Example 4-80] was tested, and the IC50 was 28 nM.
Molecule Cc1cc(Nc2cc(C(F)(F)F)ccn2)nc(-c2ccc(NC3CCN(C(=O)Cc4ccccn4)CC3)nc2)c1 [Example 4-68] has an IC50 of 2 nM.
In the case of Cc1cc(Nc2cc(C(F)(F)F)ccn2)nc(-c2ccc(C3(O)CCCc4cc(C(=O)O)ccc43)nc2)c1 (stereo not drawn) [Example 1-21], the IC50 is reported as 2 nM.
Cc1cc(Nc2cc(C(F)(F)F)ccn2)nc(-c2ccc(NC3CCN(C(=O)Cc4ccccc4C(F)(F)F)CC3)nc2)c1 [Example 4-75] showed an IC50 of 39 nM.
For Cc1cc(Nc2cc(C(F)(F)F)ccn2)nc(-c2ccc(NC3CCN(C(=O)Cc4ccc5cn[nH]c5c4)CC3)nc2)c1 [Example 4-3], the IC50 was 8 nM.
Cc1cc(Nc2cc(C(F)F)ccn2)nc(-c2ccc(C(C)(O)[C@H]3CC[C@H](C(=O)OC(C)C)CC3)nc2)c1 (single isomer, unassigned) [Example 19-3, propan-2-yl trans-4-[(1R or 1S)-1-(6-{[4-(difluoromethyl)pyridin-2-yl]amino}-4-methyl-2,3′-bipyridin-6′-yl)-1-hydroxyethyl] cyclohexanecarboxylate] showed an IC50 of 50 nM.
Cc1cc(Nc2cc(C(F)(F)F)ccn2)nc(-c2ccc(OC[C@H]3CC[C@H](C(=O)O)CC3)nc2)c1 [Example 3, trans-4-{[(4-Methyl-6-{[4-(trifluoromethyl)pyridin-2-yl]amino}-2,3′-bipyridin-6′-yl)oxy]methyl}cyclohexanecarboxylic acid] was tested, and the IC50 was 3 nM.
